Assay results published in patent publication US20250295609A1, “COMPOUND HAVING ANTI-ANDROGEN RECEPTOR ACTIVITY, AND USE THEREOF” (NANJING MINOVA PHARMACEUTICAL CO., LTD., priority 2022, published 2025).
Where two headings read alike, the source gives them in different places.

Experiments:
[1] = Pharmacokinetic study, single oral administration to SD rats; conditions: for AUC(0-t) / Cmax / Tmax / half-life: male, SD, rat, po, 50 mg/kg
Experimental: Experimental method: Male SD rats were randomly grouped (3 rats per group), given ad libitum access to water during the assay, fasted for 12 or more hours before administration, and given food 4 hours after administration.
The blood was centrifuged within 60 min of being collected to isolate plasma (centrifuged at 8000 rpm at 2-8° C. for 5 min). After the centrifugation, the plasma was transferred to a 96-well plate or centrifuge tubes, transported in a box with ice, and stored at ≤−15° C. before LC-MS/MS analysis. The drug concentration in the plasma of SD rats was measured by LC-MS/MS bioanalysis, and the plasma concentration-time data were analyzed using WinNonlin™ (Version 8.3, Certara, USA) and a non-compartmental model to evaluate the pharmacokinetic (PK) profiles of the compounds in SD rats.

[2] = system: alopecia mouse model; experiment: Hair growth promotion test in mice with alopecia (testosterone propionate model); type: in vivo, C57BL/6 mice; conditions: for growth of hairs and hair follicles compared to positive control drug group (in words): daily dose 1.5 mg, FIG. 3; for Number of hair follicles (X ± SD): day 18, per field (×100), HE staining, topical once daily for 16 days; for Hair length (X ± SD): day 18, topical once daily for 16 days, testosterone propionate alopecia mice
Experimental: The compounds of the present disclosure were tested for their hair growth-promoting effects on an alopecia mouse model.
C57BL/6 mice (purchased from SPF (Beijing) Biotechnology Co., Ltd., production license No.: SCXK (Beijing) 2019-0010), test compounds (prepared by the method of the present disclosure), rosin (Shanghai YuanYe Bio-Technology Co., Ltd., lot No. Y18M10C83144), liquid paraffin (Shanghai YuanYe Bio-Technology Co., Ltd., lot No.: Z22S11Y125555), chloral hydrate (Sinopharm Chemical Reagent Co., Ltd., lot No.: 20190823, a 2% chloral hydrate solution was prepared by using a 0.9% sodium chloride solution before use), testosterone propionate (Aladdin Reagent (Shanghai) Co., Ltd., lot No.: T101368, a 0.5% testosterone propionate solution was prepared by using an a soybean oil for injection before use), soybean oil for injection (Liaoning Shinsun Pharmaceutical Co., Ltd., lot No.: NMPA Approval No. H21024303), paraformaldehyde (Xilong Scientific Co., Ltd., lot No.: 1705022), a 0.9% sodium chloride solution (Jiangsu Huai'an Shuanghe Pharmaceutical Co., Ltd., lot No.: 210322-3C), an electronic balance (Beijing Sartorius Scientific Instruments Co., Ltd., model: BS224 S; GZX-9140MBE), and a digital display electric heating constant temperature air blast drying oven (Shanghai Boxun Medical Biological Instrument Corp.).
8-week-old male C57BL/6 mice were selected and injected with 2% chloral hydrate (400 mg/kg) for anesthesia. Equal amounts of rosin and paraffin were weighed out, heated, and mixed well. The mixture was applied on the front back of the mice in an area of about 2 cm×2.5 cm. After the mixture was cooled to be hard, the solidified hair was torn off by tweezers gently.
Qualified C57BL/6 mice (3 mice per group) were randomly assigned to a blank group, a model group, a positive control drug group (7.5% clascoterone group), and test groups (including 0.3% compound 8 group and 0.3% compound 7 group). Mice in the blank group were coated with 0.1 mL of normal saline in the depilated area every morning (1 time a day for 17 consecutive days); mice in the model group were coated with 0.1 mL of 0.5% testosterone propionate solution in the depilated area every morning (1 time a day, starting on the first day, for 17 consecutive days), and with 0.5 mL of the control solvent in the depilated area every afternoon (1 time a day, starting on the second day, for 16 consecutive days); mice in the positive control drug group were coated with 0.1 mL of 0.5% testosterone propionate solution in the depilated area every morning (1 time a day, starting on the first day, for 17 consecutive days), and with 0.5 mL of 7.5% clascoterone solution in the depilated area every afternoon (1 time a day, starting on the second day, for 16 consecutive days); and mice in the test groups were coated with 0.1 mL of 0.5% testosterone propionate solution in the depilated area every morning (1 time a day, starting on the first day, for 17 consecutive days), and with 0.5 mL of 0.3% test compound solution in the depilated area every afternoon (1 time a day, starting on the second day, for 16 consecutive days). The formula of the test compound solution was 0.3% test compound, 40% DMSO, 30% ethanol, and the balance of water; the formula of the control solvent was 40% DMSO, 30% ethanol, and the balance of water; the formula of the positive control drug group was 7.5% clascoterone, 40% DMSO, 30% ethanol, and the balance of water. The hair regrowth in the depilated area of the mice in each group was observed and photographed 16 days after the start of topical administration of the test compound solution.
On day 18 of the test, 5 new hairs were pulled out from the back depilated area of each mouse in each group, the lengths of the hairs were measured using a vernier caliper, and the lengths of the hairs of the mice in each group were counted. The skin of the depilated area of the mice in each group was cut out, and hematoxylin-eosin staining (HE staining) was performed. […]

[3] = system: human prostate cancer cells LNCaP; experiment: Cell viability inhibition assay (CTG) on LNCaP cells in presence of DHT; type: cell-based; conditions: Homo sapiens, 120 h, read-out: Inhibitory activity against human prostate cancer cell LNCaP IC50
Source text: Human prostate cancer cells LNCaP and human prostate cancer cells 22Rvl are present in patients with prostate cancer. An androgen, DHT, is able to promote the growth of human prostate cancer cells LNCaP. Using the cell model described above was intended to study the inhibitory effects of the compounds of the present disclosure on the growth of human prostate cancer cells (human prostate cancer cells LNCaP and human prostate cancer cells 22Rvl) in the presence or absence of DHT.
The medium in the culture dish was discarded, and 5 mL of trypsin was added for digestion for about 3 mins. The digestion was stopped by adding 10 mL of a fresh medium. The cells were fully pipetted and transferred to a 15 mL centrifuge tube, and the cells were collected by centrifugation at 1000 rpm for 5 mins. The cells collected by centrifugation were resuspended in 11 mL of a fresh medium. 1 mL of the cells was taken and counted, and the cell viability was detected. The cell density was adjusted to 1×10^4 cells/mL by adding an appropriate amount of the medium. The cells were seeded in a 96-well plate at 200 µL/well, and the plate was incubated overnight in a cell incubator.
After the cells were attached to the well, for the human prostate cancer cells LNCaP group, test compounds (0.1 μM, 0.3 μM, 1 μM, 3 μM, 10 μM, and 30 μM) and DHT (1 nM, inducing the expression of AR) were added to the 96-well plate, and the plate was incubated for another 5 days; for the human prostate cancer cells 22Rvl group, test compounds (0.1 μM, 0.3 μM, 1 μM, 3 μM, 10 μM, and 30 μM) were added to the 96-well plate, and the plate was incubated for another 5 days. […] The 96-well plate was equilibrated at room temperature for 30 mins. The cell viability was detected by using a CTG method. Before detection, CellTiter-Glo® Buffer and a substrate thereof (collectively called CTG reagent) were thawed and equilibrated to room temperature. Then, […] of Buffer was gently mixed with the substrate to form a homogeneous solution. The homogeneous solution was added to the 96-well plate at 100 µL/well, and the 96-well plate was incubated on a shaker for 15 mins. The fluorescence value in each well was then detected. The detection method for the fluorescence value in each well was as follows: after adding the CTG reagent, luminescence detection (integration time: 500 ms) was performed by using a correspondingly equipped multi-mode microplate reader (M200Pro, TECAN, Switzerland) according to the supplier's manual to quantify the effect of the inhibitor on the cell viability. For data analysis, an assay background value was subtracted from all data points, which was determined in wells containing the medium but no cells. Data were processed using the XLfit software (XLfit 5.2., IDBS, UK), and IC50 values of the test compounds were calculated.

AUClast in rats (comparison in words) ([1]; SD rats, oral, same dose, FIG. 2) | AUC(0-t) ([1]; plasma) | Cmax ([1]; plasma) | Tmax ([1]; plasma) | half-life ([1]; plasma) | IC50 ([3]; 1 nM DHT, 5 days, CTG) | Structure (SMILES) | AUC(0-t) ([1]; in vivo) | Cmax ([1]; in vivo) | Tmax ([1]; in vivo) | half-life ([1]; in vivo) | growth of hairs and hair follicles compared to positive control drug group (in words) [2] | Number of hair follicles (X ± SD) [2] | Hair length (X ± SD) [2] | IC50 [3]
– | – | – | – | – | – | COc1ccc(/C=C/C(=O)C2(C(=O)/C=C/c3ccc(OC)c(OC)c3)CCC(=O)CC2)cc1OC [Compound 7] | 460 ng·h/mL | 298 ng/mL | 11.4 min | 177 min | better than that of the positive control drug group | 95.600 ± 26.091 | 3.850 ± 0.009 mm | 830 nM
higher AUClast than that of compound 7 | 1010 ng·h/mL | 282 ng/mL | 19.8 min | 94.2 min | 610 nM | COc1ccc(/C=C/C(=O)C2(C(=O)/C=C/c3ccc(OC)c(OC)c3)CCC(F)(F)CC2)cc1OC [Compound 8] | – | – | – | – | better than that of the positive control drug group | 116.733 ± 35.809 | 4.493 ± 0.024 mm | –
